Values after ≈ are worked out from the molar mass of the structure shown. Values joined by “and” are separate entries in the source; they are usually repeats but may differ in a detail not shown here. Equal values may be shown once. Read-outs that look alike come from different tables or passages of the source.
Assays:
[1] = system: BT474 cells (duet carcinoma); assay: MTT antiproliferative/cytotoxic assay, BT474; assay type: cell-based, human; details: for IC50: Homo sapiens, BT-474, BT474, 72 h exposure, MTT, read-out: IC50, in vitro antiproliferative/cytotoxic activity
Text: (§1) The five selected cancer cell lines used in this research were derived from human duet carcinoma (BT474, ATCC No. HTB 20), undifferentiated lung (Chaco I, National Cancer Institute), liver hepatoblastoma (Hep-G2, ATCC No. HB8065), gastric carcinoma (KATO-III, ATCC No. HTB 103) and human colon adenocarcinoma (SW620, ATCC No. CCL 227) cancers. In addition, the non-transformed human foreskin fibroblast cell line (Hs27, ATCC No. CRL 1634) was used as a comparative control. All cell lines were obtained from the Institute of Biotechnology and Genetic Engineering, Chulalongkorn University. The five cancer cell lines were cultured in RPMI 1640 medium containing 5% (v/v) fetal calf serum (FCS), while the Hs27 cell line was cultured in Basal Iscove medium containing 5% (v/v) FCS, at 37°C with 5% (v/v) CO2 [28].
(§2) The MTT assay was performed as reported by Santos et al. and Hernandez et al.. […] The supernatant was then removed, the cells permeabilized and the formazan crystals dissolved by aspiration in 150 μl of DMSO and 25 μl of 0.1 M glycine prior to measuring the absorbance at 540 nm by a microplate reader. […] By assuming an equal mitochondrial metabolic activity per living cell, the absorbance is then related to the relative number of viable cells and so is reduced, relative to the control, by any antiproliferation and/or cytotoxic activity of the test compound.
The absorbance at 540 nm of the test compound treated cancer cells and the solvent only control was used to calculate the relative number of viable cells, setting that for the control as 100%. The relative number of viable cells, as a % of the control, was then calculated as follows: […]
(§3) where (Abs of sample) and (Abs of control) are defined as the absorbance at 540 nm of the treated cells and the control cells, respectively.
The IC50 values were graphically obtained by plotting the absorbance obtained against the corresponding different concentrations of the test compound used, and are reported as the mean ± 1 standard error (SE). Data were statistically analyzed using the Kruskal-Wallis One Way Analysis of Variance. […]

[2] = system: human colorectal cancer cell line (CRC); parameters: method as in PMID 15996024; details: 72 h treatment, cited from earlier work
[3] = system: Chaco cells (undifferentiated lung cancer); assay: MTT antiproliferative/cytotoxic assay, Chaco; assay type: cell-based; details: Homo sapiens, 72 h exposure, read-out: IC50, in vitro antiproliferative/cytotoxic activity
Text: as §1, with “The five cancer cell lines were cultured in RPMI 1640 medium containing 5% (v/v) fetal calf serum (FCS), while the Hs27 cell line was cultured in Basal Iscove medium containing 5% (v/v) FCS, at 37°C with 5% (v/v) CO2 [28].” left out
as §2
(§4) The absorbance at 540 nm of the test compound treated cancer cells and the solvent only control was used to calculate the relative number of viable cells, setting that for the control as 100%. […]

[4] = system: KATO-III cells (gastric carcinoma); assay: MTT antiproliferative/cytotoxic assay, KATO-III; assay type: cell-based; details: Homo sapiens, 72 h exposure, read-out: IC50, in vitro antiproliferative/cytotoxic activity
Text: as §1, with “The five cancer cell lines were cultured in RPMI 1640 medium containing 5% (v/v) fetal calf serum (FCS), while the Hs27 cell line was cultured in Basal Iscove medium containing 5% (v/v) FCS, at 37°C with 5% (v/v) CO2 [28].” left out
as §2, §4

[5] = system: SW620 cells (colon adenocarcinoma); assay: MTT antiproliferative/cytotoxic assay, SW620; assay type: cell-based, human; details: for IC50 / IC50, in vitro antiproliferative/cytotoxic activity: SW620, 72 h exposure, MTT; for IC50: read-out: IC50, in vitro antiproliferative/cytotoxic activity
Text: as §1
The MTT assay was performed as reported by Santos et al. and Hernandez et al.. For each of the five cancer cell lines, 5 × 10^3 cells in 200 μl of RPMI 1640 medium containing 5% (v/v) FCS were transferred per well of a 96 well tissue culture plate, and incubated at 37°C in 5% (v/v) CO2 for 24 h prior to the addition of 2 μl/well of the test extract in dimethylsulfoxide (DMSO) at various final concentrations. The addition of 2 μl/well of DMSO alone was used as the control. Cells were then incubated as above for 72 h before 10 μl of 5 mg/ml MTT was added and incubated for another 4 h. The supernatant was then removed, the cells permeabilized and the formazan crystals dissolved by aspiration in 150 μl of DMSO and 25 μl of 0.1 M glycine prior to measuring the absorbance at 540 nm by a microplate reader. Three replications of each trial were performed. By assuming an equal mitochondrial metabolic activity per living cell, the absorbance is then related to the relative number of viable cells and so is reduced, relative to the control, by any antiproliferation and/or cytotoxic activity of the test compound.
The absorbance at 540 nm of the test compound treated cancer cells and the solvent only control was used to calculate the relative number of viable cells, setting that for the control as 100%. The relative number of viable cells, as a % of the control, was then calculated as follows:
Therelative(% )numberofviablecells = (Absofsample)×100/(Absofcontrol)
as §3
The IC50 values were graphically obtained by plotting the absorbance obtained against the corresponding different concentrations of the test compound used, and are reported as the mean ± 1 standard error (SE). Data were statistically analyzed using the Kruskal-Wallis One Way Analysis of Variance. Significance was accepted at the P < 0.05 level.

[6] = system: Hep-G2 cells (liver hepatoblastoma); assay: MTT antiproliferative/cytotoxic assay, Hep-G2; assay type: cell-based; details: Homo sapiens, HepG2, Hep-G2, 72 h exposure, read-out: IC50, in vitro antiproliferative/cytotoxic activity
Text: as §1, with “The five cancer cell lines were cultured in RPMI 1640 medium containing 5% (v/v) fetal calf serum (FCS), while the Hs27 cell line was cultured in Basal Iscove medium containing 5% (v/v) FCS, at 37°C with 5% (v/v) CO2 [28].” left out
as §2, §4

[7] = MTT antiproliferative/cytotoxic assay, non-transformed Hs27; assay type: cell-based; details: human, Hs27 non-transformed foreskin fibroblast cells, read-out: IC50, in vitro antiproliferative/cytotoxic activity
Text: as §1, with “The five cancer cell lines were cultured in RPMI 1640 medium containing 5% (v/v) fetal calf serum (FCS), while the Hs27 cell line was cultured in Basal Iscove medium containing 5% (v/v) FCS, at 37°C with 5% (v/v) CO2 [28].” left out
as §2, §4

[8] = system: five human cancer cell lines (BT474, Chaco, Hep-G2, KATO-III, SW620); assay: MTT assay, summary over the five cancer cell lines; assay type: cell-based; details: 72 h exposure, read-out: IC50 values, range across the five cancer cell lines
Text: as §1, with “The five cancer cell lines were cultured in RPMI 1640 medium containing 5% (v/v) fetal calf serum (FCS), while the Hs27 cell line was cultured in Basal Iscove medium containing 5% (v/v) FCS, at 37°C with 5% (v/v) CO2 [28].” left out
as §2, §4

SW620 cells [9] = assay: Cell morphology in culture, SW620; assay type: cell-based, human; details: at IC50 ([…] / 3.0 μg/ml)
Method: (§5) The morphology of the SW620 or Hs27 cells treated with each test compound was compared to those treated with only the DMSO solvent as the control. Cells were released by standard trypsin and aspiration, centrifugally washed at 2,000 × g at 15-25°C for 5 min and finally the cell pellet was resuspended in 200 μl of PBS. To this 20 μl of proteinase K (> 600 mAU/ml) was added and total DNA was extracted using a QIAMP mini kit (Qiagen, cat. no. 51304), as per the manufacturer's instructions. […] After electrophoresis, the gel was stained with 10 μg/ml of ethidium bromide (EtBr) for 10 min, destained in distilled water for 20 min and the DNA visualized by ultraviolet transillumination.

Hs27 cells [10] = assay: Cell morphology in culture, Hs27; assay type: cell-based, human; details: Hs27, up to 96 h, same doses as for SW620
Method: as §5

SW620 cells [11] = assay: DNA fragmentation (agarose-TBE gel), SW620; assay type: cell-based, human; details: SW620, 72 h at IC50, agarose-TBE gel
Method: as §5

Hs27 cells [12] = assay: DNA fragmentation (agarose-TBE gel), Hs27; assay type: cell-based, human; details: Hs27, 72 h
Method: as §5

[13] = system: five cancer cell lines and the control Hs27 cell line; assay: MTT assay, summary over the five cancer cell lines and Hs27; assay type: cell-based; details: Homo sapiens, 72 h exposure, read-out: IC50 values, range across the five cancer cell lines and the control Hs27 cell line
Text: as §1, with “The five cancer cell lines were cultured in RPMI 1640 medium containing 5% (v/v) fetal calf serum (FCS), while the Hs27 cell line was cultured in Basal Iscove medium containing 5% (v/v) FCS, at 37°C with 5% (v/v) CO2 [28].” left out
as §2, §4

B16-F10 melanoma cells = system: B16-F10 melanoma cells; parameters: method as in PMID 20623613; details: cited from earlier work
HeLa tumor cells = system: HeLa tumor cells; parameters: method as in PMID 19497755; details: cited from earlier work
[14] = read-out: IC50, antiproliferative activity
[15] = mean ± 1 SE, ND in Table 4 = no IC50 obtained, no significant activity in tested concentration range

O=C(/C=C/c1ccc(O)c(O)c1)OCCc1ccccc1 [CAPE, caffeic acid phenethyl ester]
fold higher IC50 of CAPE than compound 2 (cardol) on BT474 ([1]; in terms of molarity, CAPE on MDA-231/MCF-7): ~1.5 fold | IC50 [2, 14]: 22.7 µM | IC50, antiproliferative activity [2]: 6.47 µg/mL (≈ 22.8 µM)

CCCCCCCCCCCCCCCc1cc(O)cc(O)c1 [Compound 2]
IC50 [1, 15]: 4.41 ± 0.15 µg/mL | IC50 [1]: 9.61 ± 0.33 µM | IC50 [3, 15]: 5.78 ± 0.07 µg/mL | IC50 [3]: 12.6 ± 0.15 µM | IC50 [4, 15]: 4.03 ± 0.13 µg/mL | IC50 [4]: 8.78 ± 0.28 µM | IC50 ([5]; Homo sapiens, SW-620, 72 h, mean ± 1 SE, ND in Table 4 = no IC50 obtained, no significant activity in tested concentration range): 3 µg/mL | IC50 ([5]; Homo sapiens, SW-620, 72 h): 6.54 µM | IC50, in vitro antiproliferative/cytotoxic activity [5, 15]: < 3.125 µg/mL | IC50, in vitro antiproliferative/cytotoxic activity ([5]; mean ± 1 SE, ND in Table 4 = no IC50 obtained, no significant activity in tested concentration range, listed as compound 2): < 3.13 µg/mL | IC50 ([5]; listed as compound 2): < 6.8 µM | IC50 [5]: < 6.81 µM | fold lower IC50 on SW620 than IC50 of CAPE on CRC ([5]; in terms of molarity): over 3.3 fold | IC50 [6, 15]: 5.97 ± 0.15 µg/mL | IC50 [6]: 1.3 ± 0.33 µM | IC50 at 72 h ([7]; Hs27, 72 h exposure): 1.3 ± 0.33 µM | IC50 at 72 h ([7]; Hs27 non-transformed control, 72 h exposure, mean ± 1 SE): 5.97 ± 0.15 µg/mL | IC50 [8]: 3.13 µg/mL to 6 µg/mL and 6.82 µM to 13.1 µM | cell morphology (SW620 cells [9]; SW620, 24 h): No significant change in the cell morphology | cell morphology (SW620 cells [9]; SW620, 48 h): vacuolation could be seen inside the cells | cell morphology (SW620 cells [9]; SW620, 72 h): apparent DNA condensation within the nucleus was visible | cell morphology (SW620 cells [9]; SW620, 96 h): significantly higher levels of cells with DNA condensation within their nucleus | cell morphology (Hs27 cells [10]): no morphological changes were observed | evidence of fragmentation of the DNA (SW620 cells [11]): neither as an apoptotic ladder nor a general degradation smear | evidence of fragmentation of the DNA (Hs27 cells [12]): neither as an apoptotic ladder nor a general degradation smear | IC50 [13]: 3.13 µg/mL to 5.97 µg/mL and 6.82 µM to 13 µM

CCCCCCCCCCCCCCCc1cc(O)cc(O)c1 [cardol (C15:0)]
IC50, cytotoxicity (B16-F10 melanoma cells): 8.352 µg/mL (≈ 26.1 µM) | complete lethality concentration (B16-F10 melanoma cells): 40 μM and 13.92 μg/ml | IC50 (B16-F10 melanoma cells; read-out: IC50, cytotoxicity): 24 µM

CC(C)=CC[C@H]1C[C@@]2(CC=C(C)C)C(=O)[C@](C(=O)c3ccccc3)(C(=O)C3=C2O[C@H](C(C)(C)O)C3)C1(C)C [hyperibone A]
IC50, antiproliferative activity (HeLa tumor cells): 0.091 µg/mL (≈ 0.175 µM) | IC50 (HeLa tumor cells; [14]): 0.176 µM

— article PMC3350427, “In vitro antiproliferative/cytotoxic activity on cancer cell lines of a cardanol and a cardol enriched from Thai Apis mellifera propolis” (BMC Complementary and Alternative Medicine, 2012)
